Source: patent US4849421A, “Anti-anxiety benzothiepino(5,4-c]pyridazines” (Yoshitomi Pharmaceutical Industries, Ltd., priority 1987, dated 1989)

Legend:
[1] = molecular target: benzodiazepine receptor; test: Displacement ability for benzodiazepine receptor ([3H]diazepam binding); parameters: species or system Wistar rats (cerebral cortex, crude synaptosomal fraction); details: tritiated diazepam 2 nM, 0° C., 20 minutes, pH 7.4, rat cerebral cortex
Procedure: Compound J: 8-chloro-2-(4-chlorophenyl)-5,6-dihydro-[1]benzothiepino[5,4-c]pyridazin-3(2H)-one 7-oxide Experiment 1: Displacement ability for benzodiazepine receptor:
Experiment on the specific binding for benzodiazepine receptor was performed according to the method described in Life Science, vol. 20, p. 2101 (1977).
A crude synaptosomal fraction was isolated from the cerebral cortex of 9 to 10 week-old male Wistar rats and suspended in 50 mM of Tris-hydrochloric acid buffer solution (pH 7.4) containing 120 mM of sodium chloride and 5 mM of potassium chloride.
To the synaptosomal suspension as prepared above were added various concentrations of test compounds and tritiated diazepam (final concentration: 2 nM), and the mixture was incubated at 0° C. for 20 minutes. Then the suspension was filtered through Whatman GF/B glass fiber filter. After the filter was washed with the foregoing buffer solution, the radioactivity left on the filter was measured by a liquid scintillation spectrometry.
Specific binding was determined by subtracting binding in the presence of 10^-6 M unlabelled diazepam from total binding.
The affinity of the test compounds of the present invention for benzodiazepine receptor is evaluated as an ability to displace tritiated diazepam from the binding site, and is represented as Ki value.

[2] = system: bicuculline-induced tonic convulsion; test: Anti-bicuculline effect; type: in vivo, male ddY-strain mice; details: Mus musculus, po; mice, p.o. 1 hour before (+)bicuculline 0.6 mg/kg i.v.; tonic convulsion within 5 minutes
Procedure: Experiment 2: Anti-bicuculline effect:
The experiment of anti-bicuculline effect was performed according to the method described in Life Science, vol. 21, p. 1779 (1977).
Groups of 7-14 male ddY-strain mice weighing 20-28 g were used. (+)Bicuculline (0.6 mg/kg) was intraveneously administered 1 hour after the oral administration of test compound, and the ED50, 50% effective dose, was determined by observing the existence of tonic convulsion within 5 minutes.

[3] = system: righting reflex; test: Potentiation of alcoholic effect (ethanol); type: in vivo, male mice; details: mice, oral, 1 hour before 30% ethanol 0.1 ml/10 g i.p.; loss of righting reflex
Procedure: Experiment 6: Potentiation of alcoholic effect:
(§1) Groups of 14 male mice, which were set in a room kept at 26° C., were administered orally with test compound and an hour later administered intraperitoneally with 0.1 ml/10 g of 30% ethanol. The righting reflex was tested at 15 and 30 minutes after ethanol treatment. The ED50 (mg/kg) was calculated by the probit method as the dose which caused loss of righting reflex for more than 3 seconds in half the mice.

[4] = system: number of shock in the punished period; test: Anti-anxiety effect (anti-conflict test, Skinner-box); type: in vivo, male rats; details: Rattus norvegicus; rats, oral; significant increment of number of shock in the punished period; read-out: Anti-anxiety effect MED
Procedure: Experiment 3: Anti-anxiety effect:
The experiment was carried out by using groups of 8 male rats which were maintained at approximately 80% of their free food weights by reducing food and employing a Skinner-box equipped with lever on the side and a grid on the floor.
The rats were placed in the Skinner-box and trained to press a lever in order to obtain milk. According to this training, the rats could obtain 0.1 ml of milk once by pressing the lever twenty times (Fix-ratio 20 reinforcement schedule, FR20).
After the rats was trained to obtain milk for 10 minutes according to FR20 (this period was hereinafter referred to as unpunished period), loud noise was given to the rats for 5 minutes (this period was hereinafter referred to as punished period). In this punished period, the rats could obtain milk everytime when they pushed the lever once, and also received a foot shock (AC 100V, 0.4-0.8 mA) for 0.3 second through the grid.
According to the repeated training of the unpunished period and the punished period, the animals which continuously pushed the lever in the unpunished period and rarely pushed, it in the punished period, and had the number of shock below 10 were provided to the experiment.
After the rats were orally administered with a test compound in 0.5% methylcellulose, the unpunished period (10 minutes) and the punished period (5 minutes) were alternately performed four times to the rats. The number of push of the lever in the unpunished period in 40 minutes and the number of shock in the punished period in 20 minutes were measured, and minimum effective dose (MED, mg/kg) was determined as the dose which observable the significant increment of number of shock in the punished period with being compared to the control group.

[5] = system: muscle-relaxant effect; test: Muscle-relaxant effect (rotating rod); type: in vivo, male mice; details: Mus musculus; mice, oral, 1 hour; rotating rod 11 rpm, drop within 1 minute
Procedure: Experiment 4: Muscle-relaxant effect:
Groups of 10 male mice each were administered orally with test compounds and an hour later placed on the rotating rod (2.8 cm in diameter) turning at a speed of 11 rpm. The ED50 (mg/kg) was calculated by the probit method as the dose which caused to drop the half number of mice from the rod within 1 minute.

[6] = system: righting reflex; test: Potentiation of narcotic effect (hexobarbital); type: in vivo, male mice; details: mice, oral, 1 hour before hexobarbital 40 mg/kg i.p.; loss of righting reflex
Procedure: Experiment 5: Potentiation of narcotic effect:
as §1, with “40 mg/kg” for “0.1 ml/10 g”, “hexobarbital.” for “30% ethanol.”, “hexobarbital” for “ethanol”

Compound | Ki [1] [nM] | ED50 [2] [mg/kg] | Potentiation of alcoholic effect ED50 [3] [mg/kg] | minimal effective dose [4] [mg/kg] | ED50 [5] [mg/kg] | Potentiation of narcotic effect ED50 [6] [mg/kg]
O=c1cc2c(nn1-c1ccc(F)cc1)-c1cc(F)ccc1SCC2 [Compound I, 10-fluoro-2-(4-fluorophenyl)-5,6-dihydro-[1]benzothiepino[5,4-c]pyridazin-3(2H)-one] | 43 | 6 |  |  |  | 
O=C1CC2CC[S+]([O-])c3ccccc3C2=NN1c1ccc(Cl)cc1 (centres unmarked) [Compound D, 2-(4-chlorophenyl)-4,4a,5,6-tetrahydro-[1]benzothiepino[5,4-c]pyridazin-3(2H)-one 7-oxide] | 45 | 4.5 |  |  |  | 
O=c1cc2c(nn1-c1ccc(Br)cc1)-c1ccccc1[S+]([O-])CC2 (centres unmarked) [Compound G, 2-(4-bromophenyl)-5,6-dihydro-[1]benzothiepino[5,4-c]pyridazin-3(2H)-one 7-oxide] | 34 | 5.9 |  |  |  | 
O=c1cc2c(nn1-c1ccc(Cl)cc1)-c1cccc(Cl)c1[S+]([O-])CC2 (centres unmarked) [Compound J, 8-chloro-2-(4-chlorophenyl)-5,6-dihydro-[1]benzothiepino[5,4-c]pyridazin-3(2H)-one 7-oxide] | 11 | 0.67 | > 500 | < 5 | > 500 | > 200
O=c1cc2c(nn1-c1ccc(Cl)cc1)-c1cc(F)ccc1SCC2 [Compound E, 2-(4-chlorophenyl)-10-fluoro-5,6-dihydro[1]benzothiepino[5,4-c]pyridazin-3(2H)-one] | 14 | 2.2 |  |  |  | 
O=C1CC2CC[S+]([O-])c3ccccc3C2=NN1c1ccc(Br)cc1 (centres unmarked) [Compound H, 2-(4-bromophenyl)-4,4a,5,6-tetrahydro-[1]benzothiepino[5,4-c]pyridazin-3(2H)-one 7-oxide] | 44 | 4.5 |  |  |  | 
O=c1cc2c(nn1-c1ccc(Cl)cc1)-c1cc(Cl)ccc1[S+]([O-])CC2 (centres unmarked) [Compound B, 10-chloro-2-(4-chlorophenyl)-5,6-dihydro-[1]benzothiepino[5,4-c]pyridazin-3(2H)-one 7-oxide] | 11 | 3.2 |  |  |  | 
O=c1cc2c(nn1-c1ccc(Cl)cc1)-c1cc(F)ccc1[S+]([O-])CC2 (centres unmarked) [Compound F, 2-(4-chlorophenyl)-10-fluoro-5,6-dihydro-[1]benzothiepino[5,4-c]pyridazin-3(2H)-one 7-oxide] | 36 | 0.72 | 117 | < 5 | 107 | 110
O=c1cc2c(nn1-c1ccc(Cl)cc1)-c1ccccc1SCC2 [Compound A, 2-(4-chlorophenyl)-5,6-dihydro-[1]benzothiepino[5,4-c]pyridazin-3(2H)-one] | 10 | 5.5 |  |  |  | 
O=c1cc2c(nn1-c1ccc(Cl)cc1)-c1ccccc1[S+]([O-])CC2 (centres unmarked) [Compound C, 2-(4-chlorophenyl)-5,6-dihydro-[1]benzothiepino[5,4-c]pyridazin-3(2H)-one 7-oxide] | 37 | 1.2 | 44 | 2.5 | 103 | 113
